In patent US20180244611A1, “Modulators of the Cystic Fibrosis Transmembrane Conductance Regulator Protein and Methods of Use” (AbbVie S.à.r.l., priority 2017, published 2018):

Key:
[1] = target: T1, F508delCFTR (Homo sapiens, UniProt P13569, DEL508-508); experiment: Cell Surface Expression-Horse Radish Peroxidase (CSE-HRP) assay, test compound with co-corrector; type: cell-based; conditions: with 2 μM co-corrector; for Maximum % activity (with co-corrector): maximum at any tested concentration, normalized to positive control;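 for Maximum % activity (with co-corrector): percent of 2 µM positive control corrector over DMSO; co-corrector is that same compound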
T1 construct: expressed in transfected cells; host or cells: CFBE41o- human lung-derived epithelial cells (CFBE41o-F508delCFTR-HRP), doxycycline-inducible
Experimental: (§1) Cell Surface Expression-Horse Radish Peroxidase (CSE-HRP) Assay
(§2) A cellular assay for measuring the F508delCFTR cell surface expression after correction with test compounds either without or with a co-corrector (2 μM of 3-[(2R,4R)-4-({[1-(2,2-difluoro-1,3-benzodioxol-5-yl)cyclopropyl]carbonyl}amino)-7-methoxy-3,4-dihydro-2H-chromen-2-yl]benzoic acid), was developed in human lung derived epithelial cell line (CFBE41o-) (Veit G et al, (2012) Mol Biol Cell. 23(21): 4188-4202). The development was achieved by expressing the F508delCFTR mutation along with a horseradish peroxidase (HRP) in the fourth exofacial loop, and then measuring the HRP activity using luminescence readout from these cells, CFBE41o-F508delCFTR-HRP, that were incubated overnight with the test corrector compounds, either without or with the co-corrector. For this primary assay, the CFBE41o-F508delCFTR-HRP cells were plated in 384-well plates (Greiner Bio-one; Cat 781080) at 4,000 cells/well along with 0.5 μg/mL doxycycline to induce the F508delCFTR-HRP expression and further incubated at 37° C., 5% CO2 for 72 hours. The test compounds were then added either without or with a co-corrector at the required concentrations and further incubated for 18-24 hours at 33° C. The highest concentration tested was 20 μM with an 8-point concentration response curve using a 3-fold dilution in both the test compound without or with the co-corrector. Three replicate plates were run to determine one EC50. All plates contained negative controls (dimethyl sulfoxide, DMSO) and positive control (2 μM of 3-[(2R,4R)-4-({[1-(2,2-difluoro-1,3-benzodioxol-5-yl)cyclopropyl]carbonyl}amino)-7-methoxy-3,4-dihydro-2H-chromen-2-yl]benzoic acid) as well as on-plate concentration response of the positive control. Post incubation, the plates were washed 5× times with Dulbecco's phosphate buffered saline (DPBS), followed by the addition of the HRP substrate, luminol (50 μL), and measuring the HRP activity using luminescence readout on EnVision® Multilabel Plate Reader (Perkin Elmer; product number 2104-0010). The raw counts from the experiment were analyzed using Accelrys® Assay Explorer v3.3.
(§3) Z′ greater than 0.5 was used as passing quality control criteria for the plates.
(§4) 1−[3*SDPositive Control+3*SDNegative Control/Absolute (MeanPositive Control−MeanNegative Control)]
(§5) wherein “SD” is standard deviation.
(§6) The % activity measured at each of the 8 test concentrations of the test compound added either without or with a co-corrector (2 μM of 3-[(2R,4R)-4-({[1-(2,2-difluoro-1,3-benzodioxol-5-yl)cyclopropyl]carbonyl}amino)-7-methoxy-3,4-dihydro-2H-chromen-2-yl]benzoic acid) was normalized to the on-plate positive control using the following formulae:
activity (Test compound with co-corrector)=[(test compound with co-corrector response−DMSO response)/(positive control response−DMSO response)]*100
(§7) The maximum % activity achieved for the test compound either without or with a co-corrector at any tested concentration is presented in Table 1 along with the respective EC50's calculated using the following general sigmoidal curve with variable Hill slope equation (described as Model 42 in the Accelrys® Assay Explorer v3.3 software):
(§8) General sigmoidal curve with concentration, response, top, bottom, EC50 and Hill slope. This model describes a sigmoidal curve with an adjustable baseline, a. The equation can be used to fit curves where response is either increasing or decreasing with respect to the independent variable, “x”.
“x” is a concentration of drug under test. “y” is the response. “a” is the maximum response, and “d” is the minimum response “c” is the inflection point (EC50) for the curve. That is, “y” is halfway between the lower and upper asymptotes when x=c. “b” is the slope-factor or Hill coefficient. The sign of b is positive when the response increases with increasing dose and is negative when the response decreases with increasing dose (inhibition).

[2] = target: T1, F508delCFTR; experiment: Cell Surface Expression-Horse Radish Peroxidase (CSE-HRP) assay, test compound without co-corrector; type: cell-based; conditions: for EC50: test compound without co-corrector;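 for Maximum % activity (without co-corrector): percent of on-plate 2 µM positive control corrector response over DMSO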
Experimental: as §1, §2, §3, §4, §5, §6
% activity (Test compound without co-corrector)=[(test compound without co-corrector response−DMSO response)/(positive control response−DMSO response)]*100%
as §7, §8
“x” is a concentration of drug under test. “y” is the response. “a” is the maximum response, and “d” is the minimum response “c” is the inflection point (EC50) for the curve. That is, “y” is halfway between the lower and upper asymptotes when x=c. “b” is the slope-factor or Hill coefficient. The sign of b is positive when the response increases with increasing dose and is negative when the response decreases with increasing dose (inhibition). The data is presented with the qualifiers shown below: […]

[3] = maximum at any tested concentration, normalized to positive control, without co-corrector

T1 sequence (P13569 with tags, fused parts or gaps DEL508-508): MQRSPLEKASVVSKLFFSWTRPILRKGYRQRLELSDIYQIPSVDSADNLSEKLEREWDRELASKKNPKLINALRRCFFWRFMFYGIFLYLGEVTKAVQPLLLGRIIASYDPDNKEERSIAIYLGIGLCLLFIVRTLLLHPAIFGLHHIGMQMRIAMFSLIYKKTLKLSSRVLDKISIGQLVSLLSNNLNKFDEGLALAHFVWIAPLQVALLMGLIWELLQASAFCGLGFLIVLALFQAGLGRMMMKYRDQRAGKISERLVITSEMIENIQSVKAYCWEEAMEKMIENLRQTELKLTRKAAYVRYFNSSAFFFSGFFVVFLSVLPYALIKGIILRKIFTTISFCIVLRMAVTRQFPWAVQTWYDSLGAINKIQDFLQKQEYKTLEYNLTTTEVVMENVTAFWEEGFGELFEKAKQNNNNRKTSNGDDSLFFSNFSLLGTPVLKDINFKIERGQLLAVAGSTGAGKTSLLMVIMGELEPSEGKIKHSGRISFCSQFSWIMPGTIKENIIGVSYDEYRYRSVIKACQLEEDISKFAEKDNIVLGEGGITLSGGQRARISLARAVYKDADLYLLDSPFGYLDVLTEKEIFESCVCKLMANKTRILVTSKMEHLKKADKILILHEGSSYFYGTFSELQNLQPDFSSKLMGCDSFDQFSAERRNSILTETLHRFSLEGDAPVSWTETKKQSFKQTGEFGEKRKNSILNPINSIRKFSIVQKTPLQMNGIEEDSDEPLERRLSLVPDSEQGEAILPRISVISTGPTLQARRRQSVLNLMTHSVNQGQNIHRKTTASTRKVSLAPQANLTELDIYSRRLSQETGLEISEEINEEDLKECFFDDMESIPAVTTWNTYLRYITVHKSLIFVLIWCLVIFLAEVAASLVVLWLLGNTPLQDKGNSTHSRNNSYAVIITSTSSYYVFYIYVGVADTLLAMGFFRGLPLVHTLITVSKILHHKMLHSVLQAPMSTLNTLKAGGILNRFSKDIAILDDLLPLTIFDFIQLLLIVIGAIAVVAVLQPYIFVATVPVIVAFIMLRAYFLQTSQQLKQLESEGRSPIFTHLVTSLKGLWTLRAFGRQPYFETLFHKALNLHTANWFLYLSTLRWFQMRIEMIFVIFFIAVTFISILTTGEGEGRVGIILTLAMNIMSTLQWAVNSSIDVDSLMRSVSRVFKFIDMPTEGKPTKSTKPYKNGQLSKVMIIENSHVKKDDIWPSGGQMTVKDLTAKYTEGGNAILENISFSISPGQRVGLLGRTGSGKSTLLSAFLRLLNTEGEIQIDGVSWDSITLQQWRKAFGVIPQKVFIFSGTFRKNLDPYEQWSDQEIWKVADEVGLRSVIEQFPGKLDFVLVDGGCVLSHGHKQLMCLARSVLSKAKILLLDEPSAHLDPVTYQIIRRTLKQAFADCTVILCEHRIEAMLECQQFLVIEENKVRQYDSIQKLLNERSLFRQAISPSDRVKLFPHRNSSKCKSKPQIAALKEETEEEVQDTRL

| Maximum % activity (with co-corrector) [1] | EC50 [1] | EC50 [2] | Emax [2, 3] | Molecule | Maximum % activity (without co-corrector) [2, 3] |
| --- | --- | --- | --- | --- | --- |
| +++ (≥350) | < 3 µM | 3 to 10 µM | ≥ 150% | COc1ccc(Br)c2c1[C@@H](C(=O)NS(=O)(=O)c1cccc3ncccc13)CCC2 (single isomer, unassigned) [Example I-62] | – |
| +++ (≥350) | < 3 µM | < 3 µM | ≥ 150% | COc1ccc(Br)c2c1[C@H](C(=O)NS(=O)(=O)c1cccc3ncccc13)CCC2 (single isomer, unassigned) [Example I-63] | – |
| +++ (≥350) | < 3 µM | 3 to 10 µM | ≥ 150% | COc1ccc(Cl)c2c1CC[C@H]2C(=O)NS(=O)(=O)c1cccc2ccccc12 (single isomer, unassigned) [Example I-86] | – |
| +++ (≥350) | 3 to 10 µM | 3 to 10 µM | 50 to 150% | COc1ccc(Cl)c2c1CC[C@@H]2C(=O)NS(=O)(=O)c1cccc2ccccc12 (single isomer, unassigned) [Example I-87] | – |
| +++ (≥350) | < 3 µM | 3 to 10 µM | ≥ 150% | COc1ccc(C2CCC2)c2c1[C@@H](C(=O)NS(=O)(=O)c1cccc3ccccc13)C2 (single isomer, unassigned) [Example I-106] | – |
| +++ (≥350) | < 3 µM | < 3 µM | ≥ 150% | COc1ccc(C2CCC2)c2c1[C@H](C(=O)NS(=O)(=O)c1cccc3ccccc13)C2 (single isomer, unassigned) [Example I-107] | – |
| +++ (≥350) | < 3 µM | 3 to 10 µM | ≥ 150% | COc1ccc(C2CCC2)c2c1[C@@H](C(=O)NS(=O)(=O)c1cccc3cnn(C)c13)CC2 (single isomer, unassigned) [Example I-141] | – |
| +++ (≥350) | < 3 µM | < 3 µM | ≥ 150% | COc1ccc(C2CCC2)c2c1[C@H](C(=O)NS(=O)(=O)c1cccc3cnn(C)c13)CC2 (single isomer, unassigned) [Example I-142] | – |
| +++ (≥350) | < 3 µM | 3 to 10 µM | 50 to 150% | COc1ccc(C2CCC2)c2c1[C@@H](C(=O)NS(=O)(=O)c1cccc3cnn(C)c13)C2 (single isomer, unassigned) [Example I-143] | – |
| +++ (≥350) | 3 to 10 µM | 3 to 10 µM | ≥ 150% | COc1ccc(C2CCC2)c2c1[C@@H](C(=O)NS(=O)(=O)c1cccc3c1CCCN3)C2 (single isomer, unassigned) [Example I-145] | – |
| +++ (≥350) | < 3 µM | 3 to 10 µM | ≥ 150% | COc1ccc(C2CCC2)c2c1[C@@H](C(=O)NS(=O)(=O)c1cccc3ncccc13)C2 (single isomer, unassigned) [Example I-147] | – |
| +++ (≥350) | < 3 µM | < 3 µM | ≥ 150% | COc1ccc(C2CCC2)c2c1[C@H](C(=O)NS(=O)(=O)c1cccc3ncccc13)C2 (single isomer, unassigned) [Example I-148] | – |
| ++ (≥150 and <350) | < 3 µM | 3 to 10 µM | 50 to 150% | Cc1ccccc1S(=O)(=O)NC(=O)[C@H]1CCc2c(Cl)cccc21 (single isomer, unassigned) [II-29] | – |
| +++ (≥350) | 3 to 10 µM | 3 to 10 µM | ≥ 150% | COc1cccc2c1CCC2C(=O)NS(=O)(=O)c1cccc2ccccc12 (stereo not drawn) [Example I-1, 4-methoxy-N-(naphthalene-1-sulfonyl)-2,3-dihydro-1H-indene-1-carboxamide] | – |
| +++ (≥350) | < 3 µM | 3 to 10 µM | ≥ 150% | O=C(NS(=O)(=O)c1cccc2ccccc12)C1CCCc2cccc(Cl)c21 (stereo not drawn) [Example I-2, 8-chloro-N-(naphthalene-1-sulfonyl)-1,2,3,4-tetrahydronaphthalene-1-carboxamide] | – |
| +++ (≥350) | 3 to 10 µM | 3 to 10 µM | ≥ 150% | COc1cccc2c1CCC[C@H]2C(=O)NS(=O)(=O)c1cccc2ccccc12 [Example I-3, (1R)-5-methoxy-N-(naphthalene-1-sulfonyl)-1,2,3,4-tetrahydronaphthalene-1-carboxamide] | – |
| +++ (≥350) | 3 to 10 µM | 3 to 10 µM | ≥ 150% | COc1cccc2c1CCCC2C(=O)NS(=O)(=O)c1cccc2ccccc12 (stereo not drawn) [Example I-4, 5-methoxy-N-(naphthalene-1-sulfonyl)-1,2,3,4-tetrahydronaphthalene-1-carboxamide] | – |
| +++ (≥350) | < 3 µM | < 3 µM | ≥ 150% | O=C(NS(=O)(=O)c1cccc2ccccc12)C1(Cc2ccccc2)CCc2c(Cl)cccc21 (stereo not drawn) [Example I-5, 1-benzyl-4-chloro-N-(naphthalene-1-sulfonyl)-2,3-dihydro-1H-indene-1-carboxamide] | – |
| +++ (≥350) | 3 to 10 µM | 3 to 10 µM | ≥ 150% | COc1cccc2c1CC[C@@]2(C)C(=O)NS(=O)(=O)c1cccc2ccccc12 [Example I-6, (1R)-4-methoxy-1-methyl-N-(naphthalene-1-sulfonyl)-2,3-dihydro-1H-indene-1-carboxamide] | – |
| +++ (≥350) | < 3 µM | < 3 µM | ≥ 150% | CCC1(C(=O)NS(=O)(=O)c2cccc3ccccc23)CCc2c(Cl)cccc21 (stereo not drawn) [Example I-7, 4-chloro-1-ethyl-N-(naphthalene-1-sulfonyl)-2,3-dihydro-1H-indene-1-carboxamide] | – |
| +++ (≥350) | 3 to 10 µM | 3 to 10 µM | ≥ 150% | O=C(NS(=O)(=O)c1cccc2ccccc12)C1CCc2c(Cl)cccc21 (stereo not drawn) [Example I-8, 4-chloro-N-(naphthalene-1-sulfonyl)-2,3-dihydro-1H-indene-1-carboxamide] | – |
| +++ (≥350) | < 3 µM | – | – | CCCCC1(C(=O)NS(=O)(=O)c2cccc3ccccc23)CCc2c(Cl)cccc21 (stereo not drawn) [Example I-30, 1-butyl-4-chloro-N-(naphthalene-1-sulfonyl)-2,3-dihydro-1H-indene-1-carboxamide] | – |

| Molecule | Maximum % activity (with co-corrector) [1] | EC50 [1] | EC50 [2] | Emax [2, 3] | Maximum % activity (without co-corrector) [2, 3] |
| --- | --- | --- | --- | --- | --- |
| 2-cyclobutyl-5-methoxy-N-(1-methyl-1H-benzimidazole-7-sulfonyl)bicyclo[4.2.0]octa-1,3,5-triene-7-carboxamide [Example I-134] | +++ (≥350) | < 3 µM | < 3 µM | – | +++ (≥150) |
